# Test results reported in article PMC7010297, “How the initiating ribosome copes with ppGpp to translate mRNAs” (PLoS Biology, 2020).
# Where “and” joins values, the source holds several entries; their conditions need not be identical. Identical values can stand only once. Like-named read-outs stand apart in the source and are kept apart here.
# How the values were obtained:
# IF2 = biological target: T1, IF2 (Escherichia coli, UniProt P0A705); assay: IF2-Bpy-tRNAi-GNP ternary complex formation by MST; type: binding; conditions: S2A Fig
# T1 construct: 6xHis (N); made in house
# T1 sequence (P0A705 whole entry): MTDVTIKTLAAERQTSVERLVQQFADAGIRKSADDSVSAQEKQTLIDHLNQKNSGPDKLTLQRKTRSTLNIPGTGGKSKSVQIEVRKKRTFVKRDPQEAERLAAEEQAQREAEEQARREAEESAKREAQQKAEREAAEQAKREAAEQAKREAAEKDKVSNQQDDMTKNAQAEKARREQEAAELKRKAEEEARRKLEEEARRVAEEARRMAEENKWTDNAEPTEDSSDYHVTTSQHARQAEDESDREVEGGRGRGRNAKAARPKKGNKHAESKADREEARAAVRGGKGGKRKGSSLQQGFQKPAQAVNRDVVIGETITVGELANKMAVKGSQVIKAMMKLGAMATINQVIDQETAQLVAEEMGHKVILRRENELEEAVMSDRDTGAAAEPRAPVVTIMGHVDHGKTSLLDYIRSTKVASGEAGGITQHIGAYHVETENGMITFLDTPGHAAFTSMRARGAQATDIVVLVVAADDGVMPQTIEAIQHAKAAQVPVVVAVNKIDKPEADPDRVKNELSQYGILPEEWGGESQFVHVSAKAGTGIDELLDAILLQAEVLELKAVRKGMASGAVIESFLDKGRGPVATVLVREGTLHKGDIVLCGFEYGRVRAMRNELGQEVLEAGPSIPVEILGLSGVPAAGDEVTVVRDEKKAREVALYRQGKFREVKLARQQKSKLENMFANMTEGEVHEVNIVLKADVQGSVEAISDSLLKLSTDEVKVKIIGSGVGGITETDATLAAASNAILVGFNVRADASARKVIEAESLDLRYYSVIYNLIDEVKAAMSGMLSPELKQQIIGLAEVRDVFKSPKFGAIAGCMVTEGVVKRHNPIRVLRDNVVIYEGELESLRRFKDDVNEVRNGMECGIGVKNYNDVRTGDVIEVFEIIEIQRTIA
# Description: Supplementary file pbio.3000593.s002.pdf: S2 Fig IF2-Bpy-tRNAi complex formation as a function of guanosine nucleotides. (A) IF2 concentration dependencies for Bpy-tRNAi binding in the presence of 0.5 mM of the indicated guanosine nucleotides to build IF2-tRNA-GNP ternary complexes (TCs). […] Three to five measurements were performed; mean and standard deviation are plotted (S1 Data). […] (PDF) Click here for additional data file.
# 30S IC = 30S IC (Escherichia coli, UniProt P0A705); assay: ppGpp tolerance of 30S IC formation by MST; type: binding; parameters: 6xHis (N); made in house
# Sequence of 30S IC (P0A705 whole entry, looked up): as the sequence (P0A705 whole entry) above
# Description: Fig 7 SETIs and ppGpp tolerance. (A) Translation initiation efficiency as a function of mRNAs along five steps of transition from NS to S conditions. […] Symbols and error bars represent averages of three replicates and standard deviations, respectively (S1 Data). (C) Comparison of ppGpp tolerance as calculated from the ratio of translation initiation efficiencies found in the presence of 0.2 mM ppGpp over the efficiencies obtained in the absence of the alarmone (S1 Data). […] All 30S IC components are as in Fig 1. Dashed line indicates the average tolerance of all mRNAs lacking the SETI element.
# 70S IC = biological target: T2, 70S IC (Escherichia coli, UniProt P0A705); assay: 70S IC formation by Bpy-tRNAi accommodation, stopped-flow; type: biochemical; parameters: K1, best-fit value: unit not given here; conditions: for A0, best-fit value / A1, best-fit value / K1, best-fit value / k2, best-fit value: fit Y=A0+A1*exp(-K1*x)+k2*x; for kfast (s-1) Avg: fluorescence
# T2 construct: 6xHis (N); made in house
# T2 sequence (P0A705 whole entry, looked up): as the sequence (P0A705 whole entry) above
# Description: Continuous lines indicate nonlinear regression fittings with a quadratic equation. Three measurements were performed; mean and standard deviation are plotted (S1 Data). (B) as (A) to measure the concentration dependence for each tested guanosine nucleotide at constant IF2 (1 μM). […] Continuous lines show best fits using exponential functions. (D) Formation of 70S IC as measured by Bpy-tRNAi accommodation in the P site of the ribosome; 0.1 μM 30S ICs were formed with Bpy-tRNAi and rapidly mixed with 0.3 μM 50S subunits on a stopped-flow apparatus as described in [14]. Colors are as in (C). Continuous lines show best fits using an exponential function for a single reaction step. Each stopped-flow trace results from the mean of 5 to 7 replicates.
# (A) Scheme of 70S IC formation. […] Time traces were analyzed by nonlinear regression with exponential terms. […] Formation of 70S IC, as measured by Bpy-tRNAi accommodation in the absence (F) or presence of 200 μM ppGpp (G). Time traces were analyzed by nonlinear regression with one exponential term. […] Continuous lines show best fits using an exponential function for a single reaction step. All time traces are mean values of 5 to 10 replicates. Bar graphs show mean and standard errors (error bars) derived from the nonlinear regression fitting (D,E,H,I) (S1 Data).
# To measure 70S pre-IC formation, a SX-20 stopped-flow instrument (Applied Photophysics, Leatherhead, UK) was set up for LS recording with an excitation wavelength of 430 nm. Scattered light was measured at an angle of 90° without a filter. Pseudo first-order conditions were approximated by using ≥3-fold excess of 50S subunits over 30S ICs; 0.2 μM 30S ICs were rapidly mixed in the instrument with 0.6 μM 50S at 25 °C. Bpy-tRNAi accommodation was measured essentially as described elsewhere. Briefly, 0.2 μM 30S ICs were formed using Bpy-tRNAi and rapidly mixed with 0.6 μM 50S at 25 °C. Fluorescence was excited at 470 nm and measured after a 495-nm longpass filter. Individual traces (6–11 traces) were averaged, and the resulting kinetic curve was approximated by single (F = A0 + A1*exp (-kapp1*t)) or double (F = A0 + A1*exp (-kapp1*t) + A2*exp (-kapp2*t)) exponential fit using Graphpad Prism 6.0 software (GraphPad, San Diego, California).
# 30S-bound IF2 (30S IC) = biological target: T3, 30S-bound IF2 (30S IC) (Escherichia coli, UniProt P0A705); assay: ppGpp (or GDP) to GTP competitive assay for 30S IC formation by MST; type: binding; conditions: mInfA
# T3 construct: 6xHis (N); made in house
# T3 sequence (P0A705 whole entry, looked up): as the sequence (P0A705 whole entry) above
# Description: MST was calculated from the respective fluorescence time dependencies (S3 Fig). […] Symbols as in (B). […] Continuous lines indicate nonlinear regression fittings with quadratic (B and E) or same-site competition (G) functions. Three measurements were performed; mean and standard deviations are plotted (S1 Data).
# […] Symbols are as indicated, 3 measurements were performed, and mean and standard deviation are plotted (S1 Data). Continuous lines show nonlinear regression fittings with a same-site inhibition model. […] (PDF) Click here for additional data file.
smiles,measurement,setting,value
Nc1nc2c(ncn2[C@@H]2O[C@H](COP(=O)(O)OP(=O)(O)O)[C@@H](OP(=O)(O)OP(=O)(O)O)[C@H]2O)c(=O)[nH]1 [ppGpp],MST Average,IF2; IF2 0.08 µM,943.56 a.u.
same,MST Replicates,IF2; IF2 0.08 µM,950.05 a.u. and 945.75 a.u. and 934.87 a.u.
same,MST Average,IF2; IF2 0.16 µM,943.40 a.u.
same,MST Replicates,IF2; IF2 0.16 µM,949.30 a.u. and 935.29 a.u. and 945.62 a.u.
same,MST Average,IF2; IF2 0.31 µM,945.38 a.u.
same,MST Replicates,IF2; IF2 0.31 µM,948.56 a.u. and 936.80 a.u. and 950.79 a.u.
same,MST Average,IF2; IF2 0.63 µM,945.13 a.u.
same,MST Replicates,IF2; IF2 0.63 µM,936.31 a.u. and 947.81 a.u. and 951.27 a.u.
same,MST Average,IF2; IF2 1.25 µM,946.96 a.u.
same,MST Replicates,IF2; IF2 1.25 µM,952.23 a.u. and 948.54 a.u. and 940.12 a.u.
same,MST Average,IF2; IF2 2.50 µM,951.73 a.u.
same,MST Replicates,IF2; IF2 2.50 µM,945.20 a.u. and 956.43 a.u. and 953.55 a.u.
same,MST Average,IF2; IF2 5.00 µM,958.05 a.u.
same,MST Replicates,IF2; IF2 5.00 µM,952.00 a.u. and 959.98 a.u. and 962.17 a.u.
same,MST Average,IF2; IF2 10.00 µM,963.39 a.u.
same,MST Replicates,IF2; IF2 10.00 µM,958.44 a.u. and 964.79 a.u. and 966.94 a.u.
same,MST Average,IF2; IF2 20.00 µM,974.27 a.u.
same,MST Replicates,IF2; IF2 20.00 µM,972.33 a.u. and 976.56 a.u. and 973.92 a.u.
same,MST Average,IF2; IF2 40.00 µM,980.83 a.u.
same,MST Replicates,IF2; IF2 40.00 µM,982.65 a.u. and 981.22 a.u. and 978.62 a.u.
same,Ki,"30S IC; mRNA mInfA, read-out: 30S IC Ki (μM), replicates",0.598 µM and 0.576 µM and 0.587 µM
same,Ki,"30S IC; mRNA mInfA, read-out: 30S IC Ki Average",0.587 µM
same,Ki,"30S IC; mRNA mTufA, read-out: 30S IC Ki (μM), replicates",2.19 µM and 2.21 µM and 2.22 µM
same,Ki,"30S IC; mRNA mTufA, read-out: 30S IC Ki Average",2.21 µM
same,efficiency (amplitude) of 70S IC formation (Bpy-tRNAi accommodation),"70S IC; 0.2 mM nucleotide, no GTP",reduced efficiencies
same,"A0, best-fit value",70S IC; mInfA,0.98
same,"A1, best-fit value",70S IC; mInfA,0.01
same,"K1, best-fit value",70S IC; mInfA,1.82
same,"k2, best-fit value",70S IC; mInfA,-0.00033
same,"A0, best-fit value",70S IC; mMF1,0.97
same,"A1, best-fit value",70S IC; mMF1,0.0267
same,"K1, best-fit value",70S IC; mMF1,1.27
same,"k2, best-fit value",70S IC; mMF1,-0.00023
same,Fluorescence Amplitude Avg,70S IC; mRNA mInfA,0.010
same,kfast (s-1) Avg,70S IC; mRNA mInfA,1.82 s⁻¹
same,Fluorescence Amplitude Avg,70S IC; mRNA mMF1,0.027
same,kfast (s-1) Avg,70S IC; mRNA mMF1,1.27 s⁻¹
same,Fluorescence Amplitude Avg,70S IC; mRNA mTufA,0.043
same,kfast (s-1) Avg,70S IC; mRNA mTufA,3.37 s⁻¹
same,"A0, best-fit value",70S IC; mTufA,0.96
same,"A1, best-fit value",70S IC; mTufA,0.0429
same,"K1, best-fit value",70S IC; mTufA,3.37
same,"k2, best-fit value",70S IC; mTufA,-0.00059
same,MST Average,30S-bound IF2 (30S IC); Log [ppGpp] 0.29,1046.47 a.u.
same,MST Average,30S-bound IF2 (30S IC); Log [ppGpp] 0.59,1038.08 a.u.
same,MST Average,30S-bound IF2 (30S IC); Log [ppGpp] 0.89,1028.93 a.u.
same,MST Average,30S-bound IF2 (30S IC); Log [ppGpp] 1.19,1018.24 a.u.
same,MST Replicates (a.u.),30S-bound IF2 (30S IC); Log [ppGpp] 1.19,1017.94 a.u. and 1018.60 a.u. and 1018.17 a.u.
same,MST Average,30S-bound IF2 (30S IC); Log [ppGpp] 1.49,1003.04 a.u.
same,MST Replicates (a.u.),30S-bound IF2 (30S IC); Log [ppGpp] 1.49,1002.79 a.u. and 1003.03 a.u. and 1003.30 a.u.
same,MST Average,30S-bound IF2 (30S IC); Log [ppGpp] 1.80,986.30 a.u.
